Tested on: HIV-1 single-round infectious reporter virus
Experiment: microbe, parasite or virus in culture
Type: cell-based
Details: for EC50: Human immunodeficiency virus 1, HeLa-CD4/CCR5, 72 h, read-out: EC50 Group from Table 1; for inhibition at 10 µM: Human immunodeficiency virus 1, HeLa-CD4/CCR5, read-out: % Inhibition @ 10 uM

For C[C@@H]1CN(C(=O)c2ccccn2)CCN1C(=O)C(=O)c1c[nH]c2c(-c3nn[nH]n3)ccc(F)c12 [Example 34], the EC50 was less than 1000 nM and the inhibition at 10 µM was greater than 98%.
With NC(=O)c1ccc(F)c2c(C(=O)C(=O)N3CCN(C(=O)c4ccccc4)CC3)c[nH]c12 [Example 42] the EC50 was less than 1000 nM and the inhibition at 10 µM was greater than 98%.
O=C(C(=O)N1CCN(C(=O)c2ccccc2)CC1)c1c[nH]c2c(-n3cncn3)ccc(F)c12 [Example 118] was tested, and the EC50 was less than 1000 nM.
N=C(Nc1cccnc1N)c1ccc(F)c2c(C(=O)C(=O)N3CCN(C(=O)c4ccccc4)CC3)c[nH]c12 [Example 166] showed an EC50 of less than 1000 nM.
With O=C(C(=O)N1CCN(C(=O)c2ccccc2)CC1)c1c[nH]c2c(-c3cccnc3)ccc(F)c12 [Example 6] the EC50 was less than 1000 nM and the inhibition at 10 µM was greater than 98%.
Compound CNC(=O)Cn1nnc(-c2ccc(F)c3c(C(=O)C(=O)N4CCN(C(=O)c5ccccc5)CC4)c[nH]c23)n1 [Example 71] has an EC50 of less than 1000 nM and an inhibition at 10 µM greater than 98%.
Cc1nc(-c2ccc(F)c3c(C(=O)C(=O)N4CCN(C(=O)c5ccccc5)C[C@H]4C)c[nH]c23)no1 [Example 178] gave an EC50 of less than 1000 nM.
O=C(Nc1ccncc1)c1ccc(F)c2c(C(=O)C(=O)N3CCN(C(=O)c4ccccc4)CC3)c[nH]c12 [Example 39] gave an EC50 of less than 1000 nM and an inhibition at 10 µM greater than 98%.
Work on O=C(C(=O)N1CCN(C(=O)c2ccccc2)CC1)c1c[nH]c2c(C3=NCCN3)ccc(F)c12 [Example 163] yielded an EC50 of less than 1000 nM.
O=C(Nc1nn[nH]n1)c1ccc(F)c2c(C(=O)C(=O)N3CCN(C(=O)c4ccccc4)CC3)c[nH]c12 [Example 54] showed an EC50 of less than 1000 nM and an inhibition at 10 µM greater than 98%.
For O=C(C(=O)N1CCN(C(=O)c2ccccc2)CC1)c1c[nH]c2c(-c3ncon3)ccc(F)c12 [Example 79], the EC50 was less than 1000 nM and the inhibition at 10 µM was greater than 98%.
CCOC(=O)c1cc(-c2ccc(F)c3c(C(=O)C(=O)N4CCN(C(=O)c5ccccc5)CC4)c[nH]c23)[nH]n1 [Example 86] showed an EC50 of less than 1000 nM.
For C[C@@H]1CN(C(=O)c2ccccc2)CCN1C(=O)C(=O)c1c[nH]c2c(-c3noc(NC4CCC4)n3)ccc(F)c12 [Example 161], the EC50 was less than 1000 nM.
Compound C[C@@H]1CN(C(=O)c2ccccn2)CCN1C(=O)C(=O)c1c[nH]c2c(-c3noc(N)n3)ccc(F)c12 [Example 190] has an EC50 of less than 1000 nM.
In the case of O=C(C(=O)N1CCN(C(=O)c2ccccc2)CC1)c1c[nH]c2c(-c3ccccc3)ccc(F)c12 [Example 1], the EC50 is reported as less than 1000 nM and the inhibition at 10 µM is reported as greater than 98%.
Compound O=C(Nc1cccnc1)c1ccc(F)c2c(C(=O)C(=O)N3CCN(C(=O)c4ccccc4)CC3)c[nH]c12 [Example 35] has an EC50 of less than 1000 nM and an inhibition at 10 µM greater than 98%.
Work on O=C(O)Cn1nnc(-c2ccc(F)c3c(C(=O)C(=O)N4CCN(C(=O)c5ccccc5)CC4)c[nH]c23)n1 [Example 70] yielded an EC50 of less than 1000 nM and an inhibition at 10 µM greater than 98%.
O=C(NCc1nc2ccccc2[nH]1)c1ccc(F)c2c(C(=O)C(=O)N3CCN(C(=O)c4ccccc4)CC3)c[nH]c12 [Example 53] gave an EC50 of less than 1000 nM.
With O=C(O)CO/N=C/c1ccc(F)c2c(C(=O)C(=O)N3CCN(C(=O)c4ccccc4)CC3)c[nH]c12 [Example 31] the EC50 was less than 1000 nM and the inhibition at 10 µM was greater than 98%.
In the case of CCN(CC)C(=O)COC(=O)c1cc(-c2ccc(F)c3c(C(=O)C(=O)N4CCN(C(=O)c5ccccc5)CC4)c[nH]c23)n[nH]1 [Example 120], the EC50 is reported as less than 1000 nM.
Nc1nc(-c2ccc(F)c3c(C(=O)C(=O)N4CCN(C(=O)c5ccccc5)CC4)c[nH]c23)no1 [Example 83] was tested, and the EC50 was less than 1000 nM and the inhibition at 10 µM was greater than 98%.
NC(=O)Cn1nnc(-c2ccc(F)c3c(C(=O)C(=O)N4CCN(C(=O)c5ccccc5)CC4)c[nH]c23)n1 [Example 104] showed an EC50 of less than 1000 nM.
With CC(C)(C)OC(=O)N1CCN(C(=O)C(=O)c2c[nH]c3c(-c4ncon4)ccc(F)c23)CC1 [Example 122] the EC50 was less than 1000 nM.
For COc1ccc(-c2ccc(F)cc2)c2[nH]cc(C(=O)C(=O)N3CCN(C(=O)c4ccccc4)CC3)c12 [Example 3], the EC50 was less than 1000 nM and the inhibition at 10 µM was greater than 98%.
Work on O=C(C(=O)N1CCN(C(=O)c2cccc([N+](=O)[O-])c2)CC1)c1c[nH]c2c(-c3ncon3)ccc(F)c12 [Example 150A] yielded an EC50 of less than 1000 nM.
